The compounds below were run against T1, Muscarinic acetylcholine receptor M1 (Rattus norvegicus, UniProt P08482) (assay: rat M1 PAM analog potency, SAR follow-up, cell-based, calcium mobilization, CHO-K1 (AID 2651)). Settings: not given.
T1 sequence (P08482 whole entry): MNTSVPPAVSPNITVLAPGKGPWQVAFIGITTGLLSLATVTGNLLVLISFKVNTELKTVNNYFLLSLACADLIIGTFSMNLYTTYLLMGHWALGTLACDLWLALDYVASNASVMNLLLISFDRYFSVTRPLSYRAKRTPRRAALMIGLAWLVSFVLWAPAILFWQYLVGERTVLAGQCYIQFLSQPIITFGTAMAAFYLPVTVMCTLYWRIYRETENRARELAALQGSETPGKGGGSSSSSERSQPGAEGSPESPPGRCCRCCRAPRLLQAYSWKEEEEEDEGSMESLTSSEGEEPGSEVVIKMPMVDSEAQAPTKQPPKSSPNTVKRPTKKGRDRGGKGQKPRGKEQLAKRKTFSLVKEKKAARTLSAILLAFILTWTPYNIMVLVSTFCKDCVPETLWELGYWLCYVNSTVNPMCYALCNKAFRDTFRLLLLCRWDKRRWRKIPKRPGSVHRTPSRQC
For `Cc1cc(NC(=O)CS(=O)(=O)c2cn(Cc3cccc(-c4cn[nH]c4)c3)c3ccccc23)no1`, the EC50 was 2.19 µM. With `Cc1cc(NC(=O)CS(=O)(=O)c2cn(Cc3cccc(Cl)c3F)c3ccccc23)no1` the EC50 was 5.1 µM. `Cc1cc(NC(=O)CS(=O)(=O)c2cn(Cc3cccc(-c4cc[nH]n4)c3F)c3ccccc23)no1` showed an EC50 of 4.4 µM. With `Cc1cc(NC(=O)CS(=O)(=O)c2cn(Cc3ccccc3Cl)c3ccccc23)no1` [2-[1-[(2-chlorophenyl)methyl]indol-3-yl]sulfonyl-N-(5-methyl-1,2-oxazol-3-yl)acetamide] the EC50 was 10 µM. For `Cc1cc(NC(=O)CS(=O)(=O)c2cn(Cc3cccc(Br)c3)c3cc(F)cc(F)c23)no1` [2-[1-[(3-bromophenyl)methyl]-4,6-bis(fluoranyl)indol-3-yl]sulfonyl-N-(5-methyl-1,2-oxazol-3-yl)ethanamide], the EC50 was 5.37 µM. With `Cc1cc(NC(=O)CS(=O)(=O)c2cn(Cc3cccc(Br)c3)c3ccccc23)no1` [2-[[1-[(3-bromophenyl)methyl]-3-indolyl]sulfonyl]-N-(5-methyl-3-isoxazolyl)acetamide] the EC50 was 3.79 µM. `Cc1cc(NC(=O)CS(=O)(=O)c2cn(Cc3cccc(F)c3)c3ccccc23)no1` [2-[[1-[(3-fluorophenyl)methyl]-3-indolyl]sulfonyl]-N-(5-methyl-3-isoxazolyl)acetamide] showed an EC50 of 5.22 µM. With `Cc1cc(NC(=O)CS(=O)(=O)c2cn(Cc3cc(Br)ccc3F)c3ccccc23)no1` [2-[[1-[(5-bromo-2-fluorophenyl)methyl]-3-indolyl]sulfonyl]-N-(5-methyl-3-isoxazolyl)acetamide] the EC50 was 1.38 µM. `Cc1cc(NC(=O)CS(=O)(=O)c2cn(Cc3cc(-c4cc[nH]n4)ccc3F)c3ccccc23)no1` [2-[[1-[[2-fluoro-5-(1H-pyrazol-5-yl)phenyl]methyl]-3-indolyl]sulfonyl]-N-(5-methyl-3-isoxazolyl)acetamide] gave an EC50 of 3.07 µM. For `Cc1cc(NC(=O)CS(=O)(=O)c2cn(Cc3cccc(Cl)c3)c3ccccc23)no1` [VU0366968-1], the EC50 was 5.82 µM. `COc1cccc(Cn2cc(S(=O)(=O)CC(=O)Nc3cc(C)on3)c3ccccc32)c1` [VU0366971-1] gave an EC50 of 6.54 µM. In the case of `Cc1cc(NC(=O)CS(=O)(=O)c2cn(Cc3cccc(-c4ccn(C)n4)c3)c3ccccc23)no1` [VU0402606-1], the EC50 is reported as 3.21 µM. For `Cc1cc(NC(=O)CS(=O)(=O)c2cn(Cc3ccc(F)nc3)c3ccccc23)no1` [VU0404018], the EC50 was 10 µM. Compound `Cc1cc(NC(=O)CS(=O)(=O)c2cn(Cc3cccc(-c4cn[nH]c4)c3)c3cc(F)cc(F)c23)no1` [VU0405645-1] has an EC50 of 1.85 µM.

Same assay, conditions: inactive by the depositor's call
Work on `Cc1cc(NC(=O)CS(=O)(=O)c2cn(Cc3cccc(-c4ccc(Cl)nc4)c3)c3ccccc23)no1` yielded an EC50 of 30 µM.
